Laboratory results: patent US11814367B2, “Inhibitors of glycogen synthase 1 (GYS1) and methods of use thereof” (Maze Therapeutics, Inc., priority 2021, dated 2023)

Legend:
[1] = biological target: hGYS1 enzyme (recombinant hGYS1/GN1 protein) (Homo sapiens (Human), UniProt P13807); test: GYS1 coupled enzyme assay (PK/LDH); format: biochemical; settings: hGYS1/GN1 50 nM, UDP-Glucose 0.8 mM, G6P 1 mM; geometric mean of at least 2 runs
[2] = test system: hGYS1 enzyme / glycogen synthesis in HeLa cells; test: GYS1 cell based assay (glycogen synthesis, Glucose-glo); parameters: species or system human; settings: Homo sapiens, HeLa, 24 h, 24 h incubation, 20 mM glucose, geometric mean of at least 2 runs
Method in brief: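 HeLa cells starved 24 h in medium containing only 1× Glutamax were plated onto compound in medium with 20 mM glucose (1% DMSO final) for 24 h, 37 °C, 5% CO2. Acid lysates were Tris-quenched, glucoamylase-digested (pH 5.3, 1 h, 37 °C) and read by Glucose-glo luminescence. IC50 came from Hill fits, as geometric mean of ≥2 runs.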

[3] = biological target: hGYS2 enzyme (recombinant hGYS2/GN1 protein) (Homo sapiens (Human), UniProt P54840); test: GYS2 coupled enzyme assay (PK/LDH); format: biochemical; settings: geometric mean of at least 2 assay runs on separate days, read-out: Avg_IC50
Method in brief: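 IC50 came from Hill fits of duplicate percent inhibition, based on control-normalized slopes of 340 nm NADH decline read each minute for 10 min. The reaction held recombinant hGYS2/GN1 (200 nM) with glycogen, UDP-glucose, G6P and PEP, plus PK/LDH coupling at pH 7.5 and 2.5% DMSO.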

Sequence of hGYS1 enzyme (recombinant hGYS1/GN1 protein) (P13807 whole entry): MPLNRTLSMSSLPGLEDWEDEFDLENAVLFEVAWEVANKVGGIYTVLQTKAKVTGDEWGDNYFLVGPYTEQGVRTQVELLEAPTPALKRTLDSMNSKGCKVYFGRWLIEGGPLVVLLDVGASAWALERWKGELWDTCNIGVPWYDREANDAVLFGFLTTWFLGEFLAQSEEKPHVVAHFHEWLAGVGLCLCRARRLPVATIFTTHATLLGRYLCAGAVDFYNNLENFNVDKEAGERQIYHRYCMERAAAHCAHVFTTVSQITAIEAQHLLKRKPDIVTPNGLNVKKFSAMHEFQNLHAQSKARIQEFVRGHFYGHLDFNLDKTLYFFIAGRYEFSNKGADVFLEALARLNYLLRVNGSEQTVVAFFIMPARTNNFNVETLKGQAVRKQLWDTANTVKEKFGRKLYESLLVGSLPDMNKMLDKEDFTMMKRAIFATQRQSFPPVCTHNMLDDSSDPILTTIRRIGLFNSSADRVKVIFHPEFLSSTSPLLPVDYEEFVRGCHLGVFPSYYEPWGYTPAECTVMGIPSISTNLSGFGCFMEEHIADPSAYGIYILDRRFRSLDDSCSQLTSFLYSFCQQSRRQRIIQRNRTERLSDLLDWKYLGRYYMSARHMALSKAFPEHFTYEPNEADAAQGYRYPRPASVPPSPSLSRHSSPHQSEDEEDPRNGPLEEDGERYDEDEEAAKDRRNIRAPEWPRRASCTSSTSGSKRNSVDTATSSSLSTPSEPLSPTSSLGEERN
Sequence of hGYS1 enzyme (recombinant hGYS1/GN1 protein) (P46976 whole entry partner): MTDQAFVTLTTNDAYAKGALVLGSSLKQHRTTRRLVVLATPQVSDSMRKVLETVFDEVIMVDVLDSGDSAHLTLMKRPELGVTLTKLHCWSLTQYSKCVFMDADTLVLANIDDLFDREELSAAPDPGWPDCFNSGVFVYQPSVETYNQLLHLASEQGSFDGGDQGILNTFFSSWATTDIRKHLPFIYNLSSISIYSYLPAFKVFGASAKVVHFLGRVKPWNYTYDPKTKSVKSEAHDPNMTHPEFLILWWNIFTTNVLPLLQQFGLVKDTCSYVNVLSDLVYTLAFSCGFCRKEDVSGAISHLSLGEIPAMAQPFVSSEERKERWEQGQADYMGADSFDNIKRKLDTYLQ
Sequence of hGYS2 enzyme (recombinant hGYS2/GN1 protein) (P54840 whole entry): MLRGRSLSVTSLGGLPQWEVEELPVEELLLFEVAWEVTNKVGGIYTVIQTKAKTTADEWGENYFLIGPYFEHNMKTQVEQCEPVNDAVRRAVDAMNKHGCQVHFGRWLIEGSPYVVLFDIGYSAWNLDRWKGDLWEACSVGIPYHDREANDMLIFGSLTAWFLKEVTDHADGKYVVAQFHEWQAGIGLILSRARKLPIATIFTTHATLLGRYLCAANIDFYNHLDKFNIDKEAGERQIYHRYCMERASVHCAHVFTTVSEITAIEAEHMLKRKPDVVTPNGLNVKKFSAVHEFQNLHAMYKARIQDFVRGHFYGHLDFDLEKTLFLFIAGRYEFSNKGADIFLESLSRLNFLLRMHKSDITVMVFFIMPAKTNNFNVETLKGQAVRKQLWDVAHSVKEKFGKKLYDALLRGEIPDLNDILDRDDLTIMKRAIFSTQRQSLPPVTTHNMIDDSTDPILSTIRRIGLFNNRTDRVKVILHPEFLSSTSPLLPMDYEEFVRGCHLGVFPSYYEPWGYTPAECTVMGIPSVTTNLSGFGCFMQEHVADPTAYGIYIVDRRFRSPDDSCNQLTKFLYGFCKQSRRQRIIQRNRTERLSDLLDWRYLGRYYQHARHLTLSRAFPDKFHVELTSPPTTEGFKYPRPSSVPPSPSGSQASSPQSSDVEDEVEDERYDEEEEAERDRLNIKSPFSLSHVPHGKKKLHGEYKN
Sequence of hGYS2 enzyme (recombinant hGYS2/GN1 protein) (P46976 whole entry partner): as the sequence (P46976 whole entry partner) above

| Compound | IC50 [1] [nM] | IC50 [2] [nM] | IC50 [3] [nM] |
| --- | --- | --- | --- |
| CC(=O)N(CCC(=O)N1C[C@H](F)C[C@H]1C(=O)N[C@@H](c1ccccc1)c1ccc(C(C)C)cc1)c1ccn(C)n1 [Compound 2, (2S,4R)-4-fluoro-1-{3-[N-(1-methyl-1H-pyrazol-3-yl)acetamido)propanoyl}-N-[(S)-phenyl[4-(propan-2-yl)phenyl]methyl]pyrrolidine-2-carboxamide] | 59 | 1090 | > 100000 |
| CC(C)c1ccc([C@@H](NC(=O)[C@@H]2C[C@@H](F)CN2C(=O)Cc2ccn(C)n2)c2ccccc2)cc1 [Compound 49, (2S,4R)-4-fluoro-1-[2-(1-methyl-1H-pyrazol-3-yl)acetyl]-N-[(S)-phenyl[4-(propan-2-yl)phenyl]methyl]pyrrolidine-2-carboxamide] | 39 | 360 | > 100000 |
| CC(=O)N1C[C@H](C(=O)N2C[C@H](F)C[C@H]2C(=O)N[C@@H](c2ccccc2)c2ccc(C(C)C)cc2)[C@H]2OCC[C@H]21 [Compound 166, (2S,4R)-1-[(3aR,6S,6aR)-4-acetyl-hexahydro-2H-furo[3,2-b]pyrrole-6-carbonyl]-4-fluoro-N-[(S)-phenyl[4-(propan-2-yl)phenyl]methyl]pyrrolidine-2-carboxamide] | 56 | 780 | > 100000 |
| CC(=O)N1CCCC(C(=O)N2C[C@H](F)C[C@H]2C(=O)N[C@@H](c2ccccc2)c2ccc(C(C)C)cc2)C1C (stereo partly drawn) [Compound 178, (2S,4R)-1-(1-acetyl-2-methylpiperidine-3-carbonyl)-4-fluoro-N-[(S)-phenyl[4-(propan-2-yl)phenyl]methyl]pyrrolidine-2-carboxamide] | 38 | 410 | > 100000 |
| CC(=O)N1C[C@H]2CCC[C@@H](C(=O)N3C[C@H](F)C[C@H]3C(=O)N[C@@H](c3ccccc3)c3ccc(C(C)C)cc3)[C@H]2C1 [Compound 183, (2S,4R)-1-[(3aS,4R,7aS)-2-acetyl-octahydro-1H-isoindole-4-carbonyl]-4-fluoro-N-[(S)-phenyl[4-(propan-2-yl)phenyl]methyl]pyrrolidine-2-carboxamide] | 41 | 930 | > 100000 |
| CC(=O)N1CCC2(CCC(C(=O)N3C[C@H](F)C[C@H]3C(=O)N[C@@H](c3ccccc3)c3ccc(C(C)C)cc3)C2)CC1 (stereo partly drawn) [Compound 184, (2S,4R)-1-{8-acetyl-8-azaspiro[4.5]decane-2-carbonyl}-4-fluoro-N-[(S)-phenyl[4-(propan-2-yl)phenyl]methyl]pyrrolidine-2-carboxamide] | 75 | 3030 | > 100000 |
| CC(C)c1ccc([C@@H](NC(=O)[C@@H]2C[C@@H](F)CN2C(=O)Cn2cnnc2)c2ccccc2)cc1 [Compound 202, (2S,4R)-4-fluoro-N-[(S)-phenyl[4-(propan-2-yl)phenyl]methyl]-1-[2-(4H-1,2,4-triazol-4-yl)acetyl]pyrrolidine-2-carboxamide] | 71 | 1860 | > 100000 |
| CC(C)c1ccc([C@@H](NC(=O)[C@@H]2C[C@@H](F)CN2C(=O)CN2CCOCC2=O)c2ccccc2)cc1 [Compound 219, (2S,4R)-4-fluoro-1-[2-(3-oxomorpholin-4-yl)acethyl]-N-[(S)-phenyl[4-(propan-2-yl)phenyl]methyl]pyrrolidine-2-carboxamide] | 101 | 1410 | > 100000 |
| Cc1nn(CC(=O)N2C[C@H](F)C[C@H]2C(=O)N[C@@H](c2ccccc2)c2ccc(C(C)C)cc2)c(=O)o1 [Compound 236, (2S,4R)-4-fluoro-1-[2-(5-methyl-2-oxo-2,3-dihydro-1,3,4-oxadiazol-3-yl)acetyl]-N-[(S)-phenyl[4-(propan-2-yl)phenyl]methyl]pyrrolidine-2-carboxamide] | 58 | 810 | > 100000 |
| CC(=O)NCc1nnc(CC(=O)N2C[C@H](F)C[C@H]2C(=O)N[C@@H](c2ccccc2)c2ccc(C(C)C)cc2)o1 [Compound 239, (2S,4R)-1-{2-[5-(acetamidomethyl)-1,3,4-oxadiazol-2-yl]acetyl}-4-fluoro-N-[(S)-phenyl[4-(propan-2-yl)phenyl]methyl]pyrrolidine-2-carboxamide] | 67 | 1560 | > 100000 |
| CC(C)c1ccc([C@@H](NC(=O)[C@@H]2C[C@@H](F)CN2C(=O)Cn2nncc2CN)c2ccccc2)cc1 [Compound 240, (2S,4R)-1-{2-[5-(aminomethyl)-1H-1,2,3-triazol-1-yl]acetyl}-4-fluoro-N-[(S)-phenyl[4-(propan-2-yl)phenyl]methyl]pyrrolidine-2-carboxamide] | 60 | 2090 | > 100000 |
| CC(C)c1ccc([C@@H](NC(=O)[C@@H]2C[C@@H](F)CN2C(=O)Cn2nncc2CN(C)C)c2ccccc2)cc1 [Compound 241, (2S,4R)-1-(2-{5-[(dimethylamino)methyl]-1H-1,2,3-triazol-1-yl}acetyl)-4-fluoro-N-[(S)-phenyl[4-(propan-2-yl)phenyl]methyl]pyrrolidine-2-carboxamide] | 82 | 1140 | > 100000 |
| CC(C)c1ccc([C@@H](NC(=O)[C@@H]2C[C@@H](F)CN2C(=O)Cc2nnc(CN(C)C)o2)c2ccccc2)cc1 [Compound 242, (2S,4R)-1-(2-{5-[(dimethylamino)methyl]-1,3,4-oxadiazol-2-yl}acetyl)-4-fluoro-N-[(S)-phenyl[4-(propan-2-yl)phenyl]methyl]pyrrolidine-2-carboxamide] | 79 | 1140 | > 100000 |

Compounds with a lower IC50 [1], results first:

| IC50 [1] [nM] | IC50 [2] [nM] | IC50 [3] [nM] | Compound |
| --- | --- | --- | --- |
| 34 | 330 | > 100000 | CC(C)c1ccc([C@@H](NC(=O)[C@@H]2C[C@@H](F)CN2C(=O)Cn2nccn2)c2ccccc2)cc1 [Compound 17, (2S,4R)-4-fluoro-N-[(S)-phenyl[4-(propan-2-yl)phenyl]methyl]-1-[2-(2H-1,2,3-triazol-2-yl)acetyl]pyrrolidine-2-carboxamide] |
| 33 | 420 | > 100000 | CC(C)c1ccc([C@@H](NC(=O)[C@@H]2C[C@@H](F)CN2C(=O)Cc2cnn[nH]2)c2ccccc2)cc1 [Compound 1, (2S,4R)-1-(2-(1H-1,2,3-triazol-5-yl)acetyl)-4-fluoro-N-((S)-(4-isopropylphenyl)(phenyl)methyl) pyrrolidine-2-carboxamide] |
| 31 | 400 | > 100000 | CC[C@@H]1CN(C(C)=O)C[C@@H]1C(=O)N1C[C@H](F)C[C@H]1C(=O)N[C@@H](c1ccccc1)c1ccc(C(C)C)cc1 [Compound 179, (2S,4R)-1-[(3R,4S)-1-acetyl-4-ethylpyrrolidine-3-carbonyl]-4-fluoro-N-[(S)-phenyl[4-(propan-2-yl)phenyl]methyl]pyrrolidine-2-carboxamide] |
| 31 | 390 | > 100000 | CC(C)c1ccc([C@@H](NC(=O)[C@@H]2C[C@@H](F)CN2C(=O)CNc2ncco2)c2ccccc2)cc1 [Compound 198, (2S,4R)-4-fluoro-1-{2-[(1,3-oxazol-2-yl)amino]acetyl}-N-[(S)-phenyl[4-(propan-2-yl)phenyl]methyl]pyrrolidine-2-carboxamide] |
| 27 | 470 | > 100000 | CC(C)c1ccc([C@@H](NC(=O)[C@@H]2C[C@@H](F)CN2C(=O)COc2cccnn2)c2ccccc2)cc1 [Compound 21, (2S,4R)-4-fluoro-N-[(S)-phenyl[4-(propan-2-yl)phenyl]methyl]-1-[2-(pyridazin-3-yloxy)acetyl]pyrrolidine-2-carboxamide] |
| 12 | 270 | > 100000 | Cc1ccc2[nH]cc(CC(=O)N3C[C@H](F)C[C@H]3C(=O)N[C@@H](c3ccccc3)c3ccc(C(C)C)cc3)c2c1 [Compound 138, (2S,4R)-4-fluoro-1-[2-(5-methyl-1H-indol-3-yl)acetyl]-N-[(S)-phenyl[4-(propan-2-yl)phenyl]methyl]pyrrolidine-2-carboxamide] |
| 11 | 170 | > 100000 | Cc1cn(CC(=O)N2C[C@H](F)C[C@H]2C(=O)N[C@@H](c2ccccc2)c2ccc(C(C)C)cc2)c(=O)[nH]c1=O [Compound 126, (2S,4R)-4-fluoro-1-[2-(5-methyl-2,4-dioxo-1,2,3,4-tetrahydropyrimidin-1-yl)acetyl]-N-[(S)-phenyl[4-(propan-2-yl)phenyl]methyl]pyrrolidine-2-carboxamide] |
| 9 | 170 | > 100000 | Cc1nn(C)c(C)c1CC(=O)N1C[C@H](F)C[C@H]1C(=O)N[C@@H](c1ccccc1)c1ccc(C(C)C)cc1 [Compound 136, (2S,4R)-4-fluoro-N-[(S)-phenyl[4-(propan-2-yl)phenyl]methyl]-1-[2-(1,3,5-trimethyl-1H-pyrazol-4-yl)acetyl]pyrrolidine-2-carboxamide] |
| 8 | 120 | > 100000 | CC(C)c1ccc([C@@H](NC(=O)[C@@H]2C[C@@H](F)CN2C(=O)Cn2cnc3ccccc32)c2ccccc2)cc1 [Compound 77, (2S,4R)-1-[2-(1H-1,3-benzodiazol-1-yl)acetyl]-4-fluoro-N-[(S)-phenyl[4-(propan-2-yl)phenyl]methyl]pyrrolidine-2-carboxamide] |
